Measured values from ChEMBL document CHEMBL1201862, “PubChem BioAssay data set” (2004).
Active and inactive are the calls of the source.

What was measured:
Protein Wnt-3a = Protein Wnt-3a (Mus musculus, UniProt P27467); assay: Wnt3a-driven reporter signaling inhibition, dose response, selectivity assay for Gli-SUFU antagonist project, Wnt-LIGHT cells, luminescence (AID 651570); format: functional; conditions: read-out: IC50_Mean;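 also: Wnt-LIGHT reporter cells stimulated with conditioned medium from Wnt3a-producing cells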
[1] = target: Ras and Rab interactor 1/Tyrosine-protein kinase ABL1 (Homo sapiens, UniProt P00519+Q13671); format: functional;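 also: biochemical TR-FRET dose-response test measuring inhibition of binding between Rin1 and Abl proteins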
[2] = intracellular Trypanosoma cruzi inhibitors in host cells – cell-based, plate reader, cherry-pick samples, set 3, dose response (AID 651818); format: functional;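 also: compounds incubated with infected cells for about four days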
[3] = target: T1, Short transient receptor potential channel 4 (Mus musculus, UniProt Q9QUQ5); assay: mouse TRPC4 channel activators, dose response, cell-based, HEK293 TRPC4/mu-opioid, Fluo-4 calcium (AID 434937); format: functional
T1 sequence (Q9QUQ5 whole entry): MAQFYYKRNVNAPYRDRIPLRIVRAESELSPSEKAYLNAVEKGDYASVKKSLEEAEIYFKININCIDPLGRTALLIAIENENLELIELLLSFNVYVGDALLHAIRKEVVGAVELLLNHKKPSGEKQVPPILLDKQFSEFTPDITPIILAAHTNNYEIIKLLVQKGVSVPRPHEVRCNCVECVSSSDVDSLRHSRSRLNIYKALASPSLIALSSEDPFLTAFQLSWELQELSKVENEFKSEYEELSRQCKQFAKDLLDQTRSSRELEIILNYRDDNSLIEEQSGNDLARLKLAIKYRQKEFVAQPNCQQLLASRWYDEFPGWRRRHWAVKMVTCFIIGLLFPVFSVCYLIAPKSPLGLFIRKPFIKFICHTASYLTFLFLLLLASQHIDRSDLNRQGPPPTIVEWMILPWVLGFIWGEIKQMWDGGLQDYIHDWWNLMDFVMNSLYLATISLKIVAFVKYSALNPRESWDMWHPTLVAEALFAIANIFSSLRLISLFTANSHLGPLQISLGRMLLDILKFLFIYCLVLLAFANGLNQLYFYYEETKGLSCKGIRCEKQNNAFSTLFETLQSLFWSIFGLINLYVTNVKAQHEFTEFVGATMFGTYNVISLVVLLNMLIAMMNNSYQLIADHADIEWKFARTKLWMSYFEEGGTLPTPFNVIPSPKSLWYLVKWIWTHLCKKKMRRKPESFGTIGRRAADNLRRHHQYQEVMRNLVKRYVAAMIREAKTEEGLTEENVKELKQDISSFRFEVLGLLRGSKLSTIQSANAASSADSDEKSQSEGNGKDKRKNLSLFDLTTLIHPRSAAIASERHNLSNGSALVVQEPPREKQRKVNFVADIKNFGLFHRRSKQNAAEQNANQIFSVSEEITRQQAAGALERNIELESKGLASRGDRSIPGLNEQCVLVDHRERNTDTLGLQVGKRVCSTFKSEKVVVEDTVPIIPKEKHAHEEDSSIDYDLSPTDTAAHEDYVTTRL

[4] = target: Glucose-6-phosphate 1-dehydrogenase (Homo sapiens, UniProt P11413); assay: human G6PD enzyme inhibitors, dose response, selectivity assay for P. falciparum G6PD inhibitor project, biochemical, fluorescence (AID 504792); format: functional
[5] = target: T2, Replicative DNA helicase DnaB (Mycobacterium tuberculosis, UniProt P9WMR3); assay: DnaB intein splicing inhibitors, dose response, biochemical, cell-free fluorescence (AID 449749); format: functional
T2 sequence (P9WMR3 whole entry): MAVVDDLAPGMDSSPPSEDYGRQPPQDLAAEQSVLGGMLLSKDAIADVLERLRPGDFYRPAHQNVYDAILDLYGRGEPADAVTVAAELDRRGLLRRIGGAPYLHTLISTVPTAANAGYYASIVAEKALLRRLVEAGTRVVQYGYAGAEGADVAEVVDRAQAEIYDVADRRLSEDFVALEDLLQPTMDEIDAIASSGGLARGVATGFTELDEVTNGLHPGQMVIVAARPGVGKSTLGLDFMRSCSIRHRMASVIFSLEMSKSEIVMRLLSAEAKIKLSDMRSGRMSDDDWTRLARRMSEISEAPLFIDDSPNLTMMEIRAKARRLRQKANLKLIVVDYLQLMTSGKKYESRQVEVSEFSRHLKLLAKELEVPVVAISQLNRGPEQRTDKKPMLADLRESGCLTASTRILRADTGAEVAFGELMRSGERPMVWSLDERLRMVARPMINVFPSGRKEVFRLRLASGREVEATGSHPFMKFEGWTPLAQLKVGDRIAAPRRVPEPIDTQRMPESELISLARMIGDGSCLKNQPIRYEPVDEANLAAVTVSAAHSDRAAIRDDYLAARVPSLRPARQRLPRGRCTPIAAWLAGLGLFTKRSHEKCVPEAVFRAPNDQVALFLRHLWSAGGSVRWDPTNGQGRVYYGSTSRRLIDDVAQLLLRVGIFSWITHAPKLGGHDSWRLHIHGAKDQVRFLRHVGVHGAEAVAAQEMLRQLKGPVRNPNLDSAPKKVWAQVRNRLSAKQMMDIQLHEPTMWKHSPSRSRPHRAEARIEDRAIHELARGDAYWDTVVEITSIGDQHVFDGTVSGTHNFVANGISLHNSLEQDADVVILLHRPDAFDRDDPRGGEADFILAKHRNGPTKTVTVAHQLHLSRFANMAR

Protein RecA = target: T3, Protein RecA (Mycobacterium tuberculosis, UniProt P9WHJ3); assay: Fluorescence Cell-Free Homogeneous Dose Retest to Identify Inhibitors of RecA-Intein Splicing Activity. [Related pubchem assays (depositor defined):AID2097, AID2223, AID489010, AID492950]; format: functional
T3 sequence (P9WHJ3 whole entry): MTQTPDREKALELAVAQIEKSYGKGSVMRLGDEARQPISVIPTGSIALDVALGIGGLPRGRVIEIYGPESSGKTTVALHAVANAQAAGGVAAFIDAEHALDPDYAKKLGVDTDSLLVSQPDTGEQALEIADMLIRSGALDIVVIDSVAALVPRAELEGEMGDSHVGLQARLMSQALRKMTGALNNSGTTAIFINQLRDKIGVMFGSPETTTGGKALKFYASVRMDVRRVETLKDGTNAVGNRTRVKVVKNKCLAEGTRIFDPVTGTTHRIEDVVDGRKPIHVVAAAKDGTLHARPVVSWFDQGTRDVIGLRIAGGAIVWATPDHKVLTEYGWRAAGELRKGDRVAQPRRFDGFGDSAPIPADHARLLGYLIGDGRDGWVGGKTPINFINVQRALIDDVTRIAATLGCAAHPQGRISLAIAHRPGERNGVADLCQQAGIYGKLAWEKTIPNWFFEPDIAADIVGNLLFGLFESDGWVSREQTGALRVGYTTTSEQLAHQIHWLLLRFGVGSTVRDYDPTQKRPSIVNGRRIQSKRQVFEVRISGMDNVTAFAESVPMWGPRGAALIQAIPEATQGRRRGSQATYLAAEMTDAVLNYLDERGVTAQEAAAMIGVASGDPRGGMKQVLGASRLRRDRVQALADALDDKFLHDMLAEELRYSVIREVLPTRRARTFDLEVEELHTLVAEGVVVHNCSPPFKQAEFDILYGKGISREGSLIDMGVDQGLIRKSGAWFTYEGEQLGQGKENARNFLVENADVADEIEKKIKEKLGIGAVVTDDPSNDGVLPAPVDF

P388/ADR = assay: cells; format: functional
SN12K1 = assay: cells; format: functional
P388 = assay: cells; format: functional
[6] = target: T4, RNA-binding protein pos-1 (Caenorhabditis elegans, UniProt G5EF15); assay: inhibitors of POS-1/mex-3 RNA binding, dose response, biochemical, fluorescence polarization (AID 1964);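 also: purified POS-1 fused to maltose binding protein made in E. coli; potency of compounds blocking POS-1 binding to fluorescent RNA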
T4 sequence (G5EF15 whole entry): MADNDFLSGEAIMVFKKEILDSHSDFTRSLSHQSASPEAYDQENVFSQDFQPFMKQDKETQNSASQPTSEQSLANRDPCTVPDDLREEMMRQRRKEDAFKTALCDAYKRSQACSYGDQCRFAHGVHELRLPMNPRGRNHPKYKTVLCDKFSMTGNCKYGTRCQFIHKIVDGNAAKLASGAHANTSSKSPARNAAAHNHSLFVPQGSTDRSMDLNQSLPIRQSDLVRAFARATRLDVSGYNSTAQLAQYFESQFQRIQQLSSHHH

[7] = target: T5, Zinc finger protein mex-5 (Caenorhabditis elegans, UniProt Q9XUB2); assay: MEX-5/TCR-2 RNA interaction inhibitors, dose response, biochemical, C. elegans, fluorescence polarization (AID 1960)
T5 sequence (Q9XUB2 whole entry): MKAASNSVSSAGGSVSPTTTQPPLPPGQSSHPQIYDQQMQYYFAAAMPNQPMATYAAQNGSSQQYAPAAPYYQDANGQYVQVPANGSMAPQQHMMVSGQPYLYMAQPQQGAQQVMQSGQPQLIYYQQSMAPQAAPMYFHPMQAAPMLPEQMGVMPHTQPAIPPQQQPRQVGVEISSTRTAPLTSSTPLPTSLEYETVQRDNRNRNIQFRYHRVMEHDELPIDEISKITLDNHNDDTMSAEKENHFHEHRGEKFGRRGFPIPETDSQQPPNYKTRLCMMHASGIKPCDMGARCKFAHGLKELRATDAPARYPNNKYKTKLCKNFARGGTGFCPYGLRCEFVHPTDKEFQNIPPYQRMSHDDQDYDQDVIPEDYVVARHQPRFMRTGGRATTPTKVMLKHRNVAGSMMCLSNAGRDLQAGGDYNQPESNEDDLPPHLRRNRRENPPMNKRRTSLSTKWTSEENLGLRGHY

Large T antigen = Large T antigen (Simian virus 40, UniProt P03070); format: functional, Betapolyomavirus macacae;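 also: Confirmatory-stage PubChem screen for compounds that inhibit SV40 T antigen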
[8] = target: FAD-linked sulfhydryl oxidase ALR (Homo sapiens, UniProt P55789); assay: inhibitors of human ALR sulfhydryl oxidase, dose response, biochemical, H2O2 detection, luminescence, cherry-pick (AID 493248)
HEK293 [9] = assay: NOD1 signaling inhibitors, primary screen, cell-based, luminescence, uHTS (AID 1578); format: functional; conditions: Homo sapiens
HEK293 [10] = assay: cells; format: functional, cell-based; conditions: Homo sapiens
HEK293 [11] = assay: cells; format: functional, cell-based; conditions: Homo sapiens; remark: listed apart in the source
HEK293 [12] = assay: NOD2 signaling inhibitors in MDP-stimulated cells, cell-based, uHTS, luminescence (AID 2001); format: functional; conditions: Homo sapiens

Sequence of Ras and Rab interactor 1/Tyrosine-protein kinase ABL1 (P00519 whole entry): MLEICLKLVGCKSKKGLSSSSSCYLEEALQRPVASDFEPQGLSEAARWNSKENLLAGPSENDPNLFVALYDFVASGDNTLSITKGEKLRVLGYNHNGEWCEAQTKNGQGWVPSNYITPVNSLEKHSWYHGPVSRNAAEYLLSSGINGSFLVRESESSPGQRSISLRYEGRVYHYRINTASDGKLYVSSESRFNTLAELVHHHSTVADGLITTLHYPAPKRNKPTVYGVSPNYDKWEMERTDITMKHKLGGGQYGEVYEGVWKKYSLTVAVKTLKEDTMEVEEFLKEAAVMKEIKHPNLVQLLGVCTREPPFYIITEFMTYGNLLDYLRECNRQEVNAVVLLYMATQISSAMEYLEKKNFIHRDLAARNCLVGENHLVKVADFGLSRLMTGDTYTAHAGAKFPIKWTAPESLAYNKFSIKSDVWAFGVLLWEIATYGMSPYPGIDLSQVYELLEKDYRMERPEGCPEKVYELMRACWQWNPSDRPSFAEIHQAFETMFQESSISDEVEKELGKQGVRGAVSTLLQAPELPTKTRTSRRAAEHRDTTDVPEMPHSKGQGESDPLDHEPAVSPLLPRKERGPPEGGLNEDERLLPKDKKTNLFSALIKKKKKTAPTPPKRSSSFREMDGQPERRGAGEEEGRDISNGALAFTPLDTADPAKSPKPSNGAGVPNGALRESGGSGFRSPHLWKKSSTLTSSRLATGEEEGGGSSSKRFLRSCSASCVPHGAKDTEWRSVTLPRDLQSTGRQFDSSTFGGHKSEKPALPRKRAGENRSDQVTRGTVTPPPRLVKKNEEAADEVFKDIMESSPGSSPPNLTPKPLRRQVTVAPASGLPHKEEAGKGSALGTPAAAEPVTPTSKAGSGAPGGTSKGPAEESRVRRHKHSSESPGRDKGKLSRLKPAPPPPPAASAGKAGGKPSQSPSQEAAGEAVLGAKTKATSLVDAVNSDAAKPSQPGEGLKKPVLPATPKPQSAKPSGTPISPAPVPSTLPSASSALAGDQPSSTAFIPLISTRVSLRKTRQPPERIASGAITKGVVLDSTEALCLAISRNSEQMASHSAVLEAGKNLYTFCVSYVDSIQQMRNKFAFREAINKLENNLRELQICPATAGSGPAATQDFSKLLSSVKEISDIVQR
Sequence of Ras and Rab interactor 1/Tyrosine-protein kinase ABL1 (Q13671 whole entry): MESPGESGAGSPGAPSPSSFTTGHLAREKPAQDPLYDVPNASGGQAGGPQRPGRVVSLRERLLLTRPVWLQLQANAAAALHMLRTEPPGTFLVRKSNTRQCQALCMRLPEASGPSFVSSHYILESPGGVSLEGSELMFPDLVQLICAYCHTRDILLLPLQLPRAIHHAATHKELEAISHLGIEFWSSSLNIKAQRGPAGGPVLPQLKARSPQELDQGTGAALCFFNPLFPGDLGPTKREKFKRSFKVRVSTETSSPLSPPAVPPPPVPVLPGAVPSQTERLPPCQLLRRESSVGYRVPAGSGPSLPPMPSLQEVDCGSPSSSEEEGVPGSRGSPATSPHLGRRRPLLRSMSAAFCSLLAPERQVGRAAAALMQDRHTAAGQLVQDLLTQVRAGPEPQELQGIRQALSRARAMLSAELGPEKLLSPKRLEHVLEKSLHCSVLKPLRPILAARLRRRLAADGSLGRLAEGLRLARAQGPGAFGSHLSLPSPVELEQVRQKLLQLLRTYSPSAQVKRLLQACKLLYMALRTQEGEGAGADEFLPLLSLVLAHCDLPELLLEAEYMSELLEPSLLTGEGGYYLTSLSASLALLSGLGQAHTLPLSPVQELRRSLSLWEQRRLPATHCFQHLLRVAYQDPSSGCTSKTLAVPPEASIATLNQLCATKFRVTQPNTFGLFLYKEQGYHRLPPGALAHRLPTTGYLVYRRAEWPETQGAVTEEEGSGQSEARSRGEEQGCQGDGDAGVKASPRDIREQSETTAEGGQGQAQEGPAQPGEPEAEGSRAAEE
Sequence of Glucose-6-phosphate 1-dehydrogenase (P11413 whole entry): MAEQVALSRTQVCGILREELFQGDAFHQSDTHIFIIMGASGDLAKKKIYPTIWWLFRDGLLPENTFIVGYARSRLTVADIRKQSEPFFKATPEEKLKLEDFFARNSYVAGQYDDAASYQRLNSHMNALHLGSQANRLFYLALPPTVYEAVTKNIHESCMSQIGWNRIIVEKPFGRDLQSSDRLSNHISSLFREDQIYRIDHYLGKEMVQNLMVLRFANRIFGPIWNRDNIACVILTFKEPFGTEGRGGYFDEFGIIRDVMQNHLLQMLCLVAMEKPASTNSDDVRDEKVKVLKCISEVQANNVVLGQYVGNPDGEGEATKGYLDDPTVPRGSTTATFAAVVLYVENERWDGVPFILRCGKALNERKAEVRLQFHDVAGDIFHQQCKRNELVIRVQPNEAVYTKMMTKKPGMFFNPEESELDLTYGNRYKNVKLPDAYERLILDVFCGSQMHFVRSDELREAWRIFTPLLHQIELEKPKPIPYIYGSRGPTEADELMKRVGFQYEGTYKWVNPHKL
Sequence of Protein Wnt-3a (P27467 whole entry): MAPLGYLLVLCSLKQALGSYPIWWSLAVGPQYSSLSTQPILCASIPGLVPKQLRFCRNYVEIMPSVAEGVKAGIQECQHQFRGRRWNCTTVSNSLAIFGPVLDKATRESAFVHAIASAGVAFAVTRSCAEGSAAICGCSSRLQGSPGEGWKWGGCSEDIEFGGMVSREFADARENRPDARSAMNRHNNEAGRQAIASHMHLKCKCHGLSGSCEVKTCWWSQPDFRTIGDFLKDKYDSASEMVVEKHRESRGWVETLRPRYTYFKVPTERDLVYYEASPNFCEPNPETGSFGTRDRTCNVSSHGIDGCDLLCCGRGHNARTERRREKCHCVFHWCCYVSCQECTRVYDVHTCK
Sequence of Large T antigen (P03070 whole entry): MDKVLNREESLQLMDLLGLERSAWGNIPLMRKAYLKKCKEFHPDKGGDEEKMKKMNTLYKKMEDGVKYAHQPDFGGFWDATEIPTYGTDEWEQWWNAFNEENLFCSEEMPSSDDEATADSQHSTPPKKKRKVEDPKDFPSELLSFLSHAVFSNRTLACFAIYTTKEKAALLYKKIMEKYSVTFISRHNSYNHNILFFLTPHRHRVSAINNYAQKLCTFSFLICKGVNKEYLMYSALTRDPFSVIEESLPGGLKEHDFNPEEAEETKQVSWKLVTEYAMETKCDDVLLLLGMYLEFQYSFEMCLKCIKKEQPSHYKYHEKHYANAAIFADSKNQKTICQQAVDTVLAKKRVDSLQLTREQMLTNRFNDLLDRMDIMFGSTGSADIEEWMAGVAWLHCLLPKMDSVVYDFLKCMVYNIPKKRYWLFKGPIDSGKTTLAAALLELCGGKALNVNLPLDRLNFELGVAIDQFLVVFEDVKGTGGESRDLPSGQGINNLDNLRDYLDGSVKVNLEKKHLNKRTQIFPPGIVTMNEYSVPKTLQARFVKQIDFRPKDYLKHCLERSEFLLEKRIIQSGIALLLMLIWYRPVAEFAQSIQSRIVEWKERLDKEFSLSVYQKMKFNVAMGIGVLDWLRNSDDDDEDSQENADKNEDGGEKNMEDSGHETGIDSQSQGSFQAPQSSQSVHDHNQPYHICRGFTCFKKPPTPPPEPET
Sequence of FAD-linked sulfhydryl oxidase ALR (P55789 whole entry): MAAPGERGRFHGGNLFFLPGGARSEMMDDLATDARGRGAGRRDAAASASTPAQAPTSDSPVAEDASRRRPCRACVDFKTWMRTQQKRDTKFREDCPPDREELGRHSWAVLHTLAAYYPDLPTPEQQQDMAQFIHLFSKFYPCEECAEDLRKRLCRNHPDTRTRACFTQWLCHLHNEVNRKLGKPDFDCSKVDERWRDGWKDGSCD

Cc1ccc(C(=O)N2CCN3C(=O)c4ccccc4C23c2ccc(Cl)cc2)cc1 (configuration not stated)
IC50 (Protein Wnt-3a): 10.3 µM (active)

OCCCNc1ncnc2c1ncn2[C@H]1CN(Cc2ccc(-c3ccccc3)cc2)C[C@@H](CO)O1
IC50 [1]: 20.6 µM (inactive)

CN(C(=O)c1ccc(NC(=O)Cc2ccc(NC(=O)C3CCN(C(=O)C4CCCC4)CC3)cc2)cc1)C1CCCC1
IC50 [1]: 12.6 µM (inactive)

C[C@@H]1CN([C@@H](C)CO)C(=O)c2cccc(NC(=O)c3nc4ccccc4s3)c2O[C@H]1CN(C)Cc1ccc(C(=O)Nc2ccccc2N)cc1
AC50 [2]: 2.09 µM (active)

CC(C)(C)c1cc(Cl)ccc1OCCn1ccnc1
EC50 [3]: 5.96 µM (active)

O=S(=O)(Nc1c(O)ccc2ccccc12)c1ccccc1
IC50 [4]: 29.9 µM (inactive)
AC50 [5]: 5.09 µM (active)
EC50 (Protein RecA): 1.51 µM (active)

COc1ccc2[nH]c3c(C)c4cc[n+](C)cc4c(C)c3c2c1
GI50 (P388/ADR): 47.4 µM (inactive)
GI50 (SN12K1): 0.287 µM (active)
GI50 (P388): 0.796 µM (active)

CCCN1CCc2cccc3c2[C@H]1Cc1ccc(O)c(O)c1-3
EC50 [6]: 5.56 µM (active)
EC50 [7]: 3.12 µM (active)
IC50 (Large T antigen): 29.7 µM (active)
IC50 [4]: > 80 µM (inactive)
AC50 [8]: 0.009 µM (active)

C[C@H]1CN([C@@H](C)CO)C(=O)c2cc(NS(=O)(=O)c3ccccc3)ccc2O[C@@H]1CN(C)Cc1ccc(-c2ccccc2)cc1
AC50 [2]: 6.29 µM (active)

Nc1cc2c(cc1[N+](=O)[O-])[nH]c1c(-c3ccccc3)nccc12
GI50 (P388/ADR; Mus musculus, P388/ADR): 17.7 µM (inactive)
GI50 (SN12K1; Homo sapiens, SN12K1): 20.7 µM (inactive)
GI50 (P388; Mus musculus, P388): 17.2 µM (inactive)

CCN(CC)C(=O)c1ccc(NC(=O)c2cc(S(=O)(=O)N3CCCCCC3)ccc2OC)cc1
IC50 [1]: 0.618 µM (active)

Cc1ccc(NCC(=O)Nc2cccc(S(=O)(=O)N(C)C)c2)cc1S(=O)(=O)N1CCCCCC1
IC50 (Protein Wnt-3a): 8.18 µM (active)

Cn1sc2ccccc2c1=S
GI50 (P388/ADR; Mus musculus, P388/ADR): 0.441 µM (active)
GI50 (SN12K1; Homo sapiens, SN12K1): 2.79 µM (inactive)
GI50 (P388; Mus musculus, P388): 0.294 µM (active)

O=P1(Oc2ccc(Cl)cc2Cl)Oc2ccc3ccccc3c2-c2c(ccc3ccccc23)O1
GI50 (P388/ADR; Mus musculus, P388/ADR): 51.4 µM (inactive)
GI50 (SN12K1; Homo sapiens, SN12K1): 20.7 µM (inactive)
GI50 (P388; Mus musculus, P388): 33.3 µM (inactive)

Oc1nc(CCl)nc2cc(-c3ccc(F)cc3)sc12
EC50 (HEK293 [9]): 13.1 µM (active)
IC50 (HEK293 [10]): 12.6 µM (active)
IC50 (HEK293 [11]): > 20 µM (inactive)
IC50 (HEK293 [12]): 15.2 µM (inactive)

NCCCNC(=O)c1cc2ccccc2[nH]1
EC50 [3]: 7.5 µM (active)

C[C@H](CO)N1C[C@H](C)[C@H](CN(C)Cc2ccc(-c3ccccc3)cc2)Oc2c(NC(=O)NC3CCCCC3)cccc2C1=O
AC50 [2]: 3.38 µM (active)

O=C1CCCn2c3ccccc3c3ccnc1c32
GI50 (P388/ADR; Mus musculus, P388/ADR): 20 µM (inactive)
GI50 (SN12K1; Homo sapiens, SN12K1): 39.9 µM (inactive)
GI50 (P388; Mus musculus, P388): 22.6 µM (inactive)
